From ChEMBL document CHEMBL1201862, “PubChem BioAssay data set” (2004) come the findings set out here.

One assay relates to Streptococcus. Put plainly: GAS UMAA2166 growth inhibition – luminescence, BacTiterGlo, counter-screen for streptokinase expression inhibitor project, dose response (AID 1915).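 Further: potency for reduction of bacterial viability or growth.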 Type of assay: functional, organism-based.
A short description of assay [1]: microbe, parasite or virus in culture. Type of assay: functional. To be noted: Mycobacterium tuberculosis.
Assay [2] relates to Streptococcus sp. 'group A'. Kind of assay: Streptococcus pyogenes SK(-)GAS viability under kanamycin – luminescence, BacTiterGlo, confirmation, counter-screen for streptokinase expression inhibitor project, dose response (AID 1900). The class given is functional, organism-based.
Another assay concerns the target T1, Streptokinase A (Streptococcus pyogenes serotype M1, UniProt P10520).
T1 sequence (P10520 whole entry): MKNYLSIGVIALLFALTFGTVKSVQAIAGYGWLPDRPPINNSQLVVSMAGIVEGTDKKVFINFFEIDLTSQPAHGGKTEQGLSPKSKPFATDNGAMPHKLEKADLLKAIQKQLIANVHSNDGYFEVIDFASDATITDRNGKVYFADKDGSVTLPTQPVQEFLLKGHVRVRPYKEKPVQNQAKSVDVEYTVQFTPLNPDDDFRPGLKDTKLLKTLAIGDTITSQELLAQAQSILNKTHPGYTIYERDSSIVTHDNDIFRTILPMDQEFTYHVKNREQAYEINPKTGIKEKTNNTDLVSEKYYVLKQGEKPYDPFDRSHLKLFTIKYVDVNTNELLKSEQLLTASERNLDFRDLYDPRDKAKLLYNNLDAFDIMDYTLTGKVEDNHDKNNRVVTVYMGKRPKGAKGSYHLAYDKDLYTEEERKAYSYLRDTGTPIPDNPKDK
Kind of assay: viability-normalized secreted streptokinase activity reduction – plasminogen activation absorbance, OD405, dose response (AID 1914).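 Further: secreted streptokinase activity via plasminogen activation per viability signal from cell pellet.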 Type of assay: functional, Streptococcus pyogenes M1 GAS.

Assay [3] in a line: HEK-293T cell viability reduction – luminescence, B-cell screen hits, cytotoxicity control for BCR NF-kB inhibitor project, dose response (AID 489021).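 Further: HEK-293T cells carrying an NF-kB luciferase reporter; cells exposed to compound for about 14 hours before viability readout.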 Type of assay: functional, cell-based.
Assay [4] concerns the target T2, Calpain-2 catalytic subunit (Sus scrofa, UniProt P43367).
T2 sequence (P43367 whole entry): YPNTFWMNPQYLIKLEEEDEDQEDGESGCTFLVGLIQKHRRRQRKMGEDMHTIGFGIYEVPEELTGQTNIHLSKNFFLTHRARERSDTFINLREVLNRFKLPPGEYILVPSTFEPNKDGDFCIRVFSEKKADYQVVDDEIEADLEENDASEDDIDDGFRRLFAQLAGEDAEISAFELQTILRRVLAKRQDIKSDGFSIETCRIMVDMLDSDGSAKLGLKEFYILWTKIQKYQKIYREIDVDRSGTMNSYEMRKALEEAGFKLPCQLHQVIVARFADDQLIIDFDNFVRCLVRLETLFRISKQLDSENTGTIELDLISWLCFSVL
Kind of assay: m-calpain protease blockers, concentration series – biochemical, fluorogenic peptide substrate, dose response (AID 1420). The class given is functional.

A short description of assay [5]: Luminescence Cell-Based Dose Retest to Confirm Inhibitors of Cancer Stem Cells. [Related pubchem assays (depositor defined):AID2717, AID2721]. Type of assay: functional. The note with it: Homo sapiens.
In the next assay the test system is INS1. Kind of assay: INS-1E survival protection against cytokine death – cell-based, luminescence, retest, dose response (AID 449756).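 Further: cell death triggered by IL-1 beta plus TNF-alpha plus IFN-gamma mixture; protective hits raise ATP signal compared with cytokine alone wells.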 Type of assay: functional. The note with it: Rattus norvegicus, INS1.
Another assay concerns the target Genome polyprotein (dengue virus type 2, UniProt P29990). Put plainly: flavivirus cap methylation enzyme inhibition – biochemical, confirmation dose response, primary screen (AID 588689). The class given is functional.
Assay [6] addresses Induced myeloid leukemia cell differentiation protein Mcl-1 (Homo sapiens, UniProt Q07820). Type of assay: functional.
A short description of assay [7]: Luminescence Cell-Based Dose Response HTS to Identify Activators of Luciferase Translation or Activity in H4 […] Cells. [Related pubchem assays: 1829 (Project Summary), 1814 (Primary HTS)]. Type of assay: functional.
Assay [8] in a line: Luminescence Cell-Based Dose Confirmation HTS to Identify Activators of 5'UTR Stem-Loop Driven Alpha-Synuclein mRNA Translation in H4 Neuroglioblastoma Cells. [Related pubchem assays: 1829 (Project Summary), 1814 (Primary HTS)]. Type of assay: functional.
The subject of another assay is H4. Kind of assay: Luminescence Cell-Based Dose Response HTS to Identify Activators of 5'UTR Stem-Loop Driven Prion Protein mRNA Translation in H4 Neuroglioblastoma Cells. [Related pubchem assays: 1829 (Project Summary), 1814 (Primary HTS)]. The note with it: Homo sapiens. Type of assay: functional.
For assay [9], the target named is T3, Ubiquitin-conjugating enzyme E2 N (Homo sapiens, UniProt P61088).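 Further: Dose-response confirmation in a TR-FRET assay detecting UBC13-driven polyubiquitin chain formation, inhibition measured.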
T3 sequence (P61088 whole entry): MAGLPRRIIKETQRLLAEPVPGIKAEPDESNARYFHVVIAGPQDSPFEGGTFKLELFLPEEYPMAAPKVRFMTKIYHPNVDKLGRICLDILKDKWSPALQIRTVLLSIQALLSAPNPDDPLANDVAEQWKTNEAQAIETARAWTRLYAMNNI
The class given is functional.

A short description of a further assay: cells. The class given is functional.

The source made the active and inactive calls.

Sequence of Induced myeloid leukemia cell differentiation protein Mcl-1 (Q07820 whole entry): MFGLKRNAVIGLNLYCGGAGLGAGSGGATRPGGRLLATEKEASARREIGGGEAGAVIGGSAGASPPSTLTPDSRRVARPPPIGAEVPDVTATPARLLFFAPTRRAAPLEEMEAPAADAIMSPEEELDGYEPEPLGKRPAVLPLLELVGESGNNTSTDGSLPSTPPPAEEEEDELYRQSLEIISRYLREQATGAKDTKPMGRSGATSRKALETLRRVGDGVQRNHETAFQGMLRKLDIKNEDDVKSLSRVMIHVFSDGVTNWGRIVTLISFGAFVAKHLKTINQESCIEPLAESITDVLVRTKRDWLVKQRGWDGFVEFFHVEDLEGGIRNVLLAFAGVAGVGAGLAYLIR
Sequence of Genome polyprotein (P29990 2492-3391 limits assumed): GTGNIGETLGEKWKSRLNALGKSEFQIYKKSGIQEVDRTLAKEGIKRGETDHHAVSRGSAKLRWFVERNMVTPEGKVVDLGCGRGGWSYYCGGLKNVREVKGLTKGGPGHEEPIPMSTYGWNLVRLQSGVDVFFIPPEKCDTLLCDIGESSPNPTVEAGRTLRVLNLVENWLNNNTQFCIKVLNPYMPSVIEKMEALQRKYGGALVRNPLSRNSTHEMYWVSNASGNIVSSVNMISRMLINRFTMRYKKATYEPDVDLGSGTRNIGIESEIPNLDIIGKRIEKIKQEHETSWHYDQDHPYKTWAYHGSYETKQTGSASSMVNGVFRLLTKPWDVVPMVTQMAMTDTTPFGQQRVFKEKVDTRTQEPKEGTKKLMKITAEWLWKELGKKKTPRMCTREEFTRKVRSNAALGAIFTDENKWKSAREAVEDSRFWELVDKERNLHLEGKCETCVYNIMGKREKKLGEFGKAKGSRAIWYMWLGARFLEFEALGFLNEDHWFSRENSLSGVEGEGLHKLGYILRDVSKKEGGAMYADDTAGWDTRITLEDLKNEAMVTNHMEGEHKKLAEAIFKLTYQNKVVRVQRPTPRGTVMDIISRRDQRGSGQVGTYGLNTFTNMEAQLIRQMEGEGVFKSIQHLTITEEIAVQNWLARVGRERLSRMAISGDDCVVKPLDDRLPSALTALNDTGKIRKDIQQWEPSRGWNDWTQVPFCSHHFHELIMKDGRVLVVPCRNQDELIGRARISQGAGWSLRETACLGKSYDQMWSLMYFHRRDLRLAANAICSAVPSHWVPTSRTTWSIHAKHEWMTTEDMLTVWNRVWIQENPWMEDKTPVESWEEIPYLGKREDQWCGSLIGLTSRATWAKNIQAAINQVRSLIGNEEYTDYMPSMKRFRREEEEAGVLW

`CCn1nc(NC(=O)c2ccncc2)c2cc3cc(C)ccc3nc21`: the results for the concentration giving a half-maximal response (EC50) (with Streptococcus; in [2]; at Streptokinase A) were 11.4 µM (active), 1.88 µM (active) and > 150 µM (not active), respectively. Further, the CC50 in assay [1] was > 40 µM (active). Turning to `C/C=C(/C)C(=O)OC1Cc2c(ccc3ccc(=O)oc23)OC1(C)C` (stereo not given), in assay [3], the IC50 is > 80 µM (inactive). In the case of `Cc1cc(NC(=O)CSc2nc3ccsc3c(=O)n2CCCC(=O)NCCc2ccccc2)no1`, the IC50 in assay [4] is 14.1 µM (not active). For the compound `CC1CN(Cc2csc(-c3ccc(Cl)cc3)n2)CC(C)O1` (stereo not given), in assay [4], the IC50 is 13.2 µM (not active). Regarding `CN1C(=O)c2cccc3c(S(=O)(=O)Nc4ccccc4F)ccc1c23`, in assay [3], the IC50 is > 80 µM (inactive). As for `Cc1ccc(C)c(NC(=O)c2cc(-c3ccccc3)nn2-c2ccccc2)c1`, the CC50 in assay [1] was > 40 µM (active). Also, in assay [5], the half-maximal activity concentration (AC50) is 33.9 µM (active). As for `O=C(Nc1cc(Sc2ccccn2)cc([N+](=O)[O-])c1)c1cccc(F)c1`, the AC50 with INS1 is 5.55 µM (active). For the same compound, the IC50 in assay [4] is given as 5.86 µM (not active). Take `CCOC(=O)C1CCCN(C(=O)CSc2ccc(NC(C)=O)cc2)C1` (stereo not given): the concentration for half-maximal inhibition (IC50) in assay [4] is < 0.4 µM (not active).

For the compound `O=C(NCc1ccco1)C1CCN(C(=O)c2cc3sccc3n2Cc2ccc(Cl)cc2)CC1`, the IC50 in [4] was 10.9 µM (not active). For the compound `COc1ccc(-c2ccc(OC)c([C@H]3[C@H]4C=CC[C@@H](C)[C@@H]4C(=O)N3Cc3ccccc3)c2)cc1C`, the IC50 in assay [3] was > 80 µM (inactive). With `COc1cc(/C=C2\C(=N)N3N=C(N4CCOCC4)SC3=NC2=O)ccc1OC(=O)c1ccccc1`, the concentration for half-maximal inhibition (IC50) at Genome polyprotein was 80.1 µM (active). Consider `CCN(c1ccc(NC(=O)CCNC(=O)c2ccco2)cc1)C(C)C`, for which the half-maximal inhibitory concentration (IC50) in [6] is on record as 3.29 µM (not active). Regarding `CCCn1c(O)nnc1SCc1nc2ccccc2s1`, the figures for the EC50 (in assay [7]; in assay [8]; with H4) were 22.7 µM (active), 3.71 µM (active) and 37.1 µM (active), respectively. For the same compound, in assay [4], the IC50 is 0.803 µM (not active). With `CCN(CC)C(=O)c1ccc(S(=O)(=O)Cc2ccc(C)cc2)c([N+](=O)[O-])c1`, the IC50 in assay [3] was > 80 µM (inactive). On to `CC(C)[C@H](N)c1nnc(SCC(=O)c2ccc(Cl)cc2)o1`, for which the IC50 in assay [3] was > 80 µM (inactive).

Take `O=P(Nc1cccc(Cl)c1)(Oc1ccccc1)Oc1ccccc1`: in assay [4], the IC50 was 8.58 µM (not active).

As to `O=C(Nc1ccn(Cc2ccccc2F)n1)c1ccc(COc2ccccc2Cl)cc1`, in [1], the CC50 was > 40 µM (active). Besides, the concentration at half-maximal activity (AC50) in assay [5] is 1.02 µM (active). For the compound `Cc1c(Br)c([N+](=O)[O-])nn1CCCC(=O)Nc1c(C)n(C)n(-c2ccccc2)c1=O`, in [9], the IC50 is > 20 µM (inactive).

Consider `Clc1ccc2c(c1)CNc1c(ncnc1N1CCOCC1)O2`, for which the IC50 in assay [9] is > 20 µM (inactive).

As for `CCOC(=O)c1c(NC(=O)c2ccc(C)cc2)sc2c1CC(C)(C)NC2(C)C`, the IC50 in assay [9] is > 20 µM (inactive). With `O=C(COC(=O)c1c[nH]c(=O)[nH]c1=O)Nc1cccc([N+](=O)[O-])c1`, the IC50 in [9] is > 20 µM (inactive).

Consider `CC1CC(=O)C(C(C2=C(O)CC(C)CC2=O)c2ccccc2)=C(O)C1` (stereo not given), for which the concentration for half-maximal inhibition (IC50) on Genome polyprotein was 66.2 µM (active).

Take `CCn1nc(C)c(/C=N/NC(=O)Cc2ccc(Cl)cc2)c1C`: the IC50 in [6] is < 0.4 µM (not active). Still for that read-out and setting: the figure for `CN(C)c1ccc(/C=c2\sc3nc(-c4ccccc4)nn3c2=O)cc1` is 5.67 µM (active). On to `O=C(O/N=C/c1ccc2c(c1)OCO2)c1ccc([N+](=O)[O-])cc1`, for which the figures for the half-maximal inhibitory concentration (IC50) (in the assay “cells”; in [4]) were 8.31 µM (active) and 16 µM (not active), respectively.
